Results from US8507724B2 (priority 2008, dated 2013).
“And” between values parts separate entries of the source, which are not always exact repeats. Equal values may be shown once. Read-outs that look alike come from different tables or passages of the source.

Test: in vivo
Assay type: in vivo
Conditions: rat; for Tmax: read-out: tmax (converted); for half-life: mean n=3, read-out: t1/2
Description: […] Whole blood samples were taken from a lateral tail vein for plasma separation at time points 0 min, 30 min, 1 h, 2 h and 4 h after p.o. dosing; and 0 min, 15 min, 30 min, 1 h, and 2 h after i.v. dosing, while the terminal samples at time point 6 h after dosing (p.o and Lv.) were taken by cardiac puncture. All time points were taken from a single rat, and all experiments were carried out in triplicate.
The samples were thawn at room temperature and prepared by protein precipitation with ratio 1:2 of plasma and acetonitrile and were centrifuged 10 minutes at 16 100×g (Eppendorf 5415D, Eppendorf AG, Hamburg, Germany) before injection to UPLCIMSMS system. The standard samples were prepared similarly, after spiking blank plasma samples to 0.5, 2, 5, 10, 20, 50, 200, 500, 1000 and 2000 ng/ml of the analyte compounds.
The pharmacokinetic parameters for study compounds were calculated by WinNonlin Pro (Pharsight Corp, CA) using standard noncompartmental methods. The volume of distribution (Vd) was based on the terminal phase. The elimination phase half-life (t1/2) was calculated by least-squares regression analysis of the terminal linear part of the log concentration-time curve. The area under the plasma concentration-time curve (AUC) was determined by use of the linear trapezoidal rule up to the last measurable concentration and thereafter by extrapolation of the terminal elimination phase to infinity. The area under the plasma concentration-time curve without terminal extrapolation is reported as AUC 0-6 h. The mean residence time (MRT) representing the average amount of time a compound remains in a compartment or system was calculated extrapolating the drug concentration profile to infinity. The maximum plasma concentration (cmax) and the time to cmax (tmax) were derived directly from the plasma concentration data. The tentative oral bioavailability (F) was calculated by dividing the AUC after p.o. administration by the AUC after i.v. administration taking into account the differences in dose, i.e. F=AUC(p.o.)/Dose(p.o.)/AUC(i.v)/[…], and reported as percentages (%).
A Waters Acquity chromatographic system (Waters Corp., Milford, Mass., USA) with autosampler, vacuum degasser and column oven was used. The analytical column used for all compounds was a Waters BEH ShieldRP18, (2.1×50 mm, 1.7 μm, Waters Corp, Milford, Mass., USA) together with an on-line filter. The eluents were 0.1% acetic acid (A, pH 3.2) and acetonitrile (B). A linear gradient elution from 5% B to 35% B in 0-2 minutes, from 35% B to 85% B in 2.0-3.0 min was employed, followed by 1 min isocratic elution with […] and column equilibration. The flow rate was 0.5 ml/min and the column oven temperature was 35° C. LC/MS/MS/data was acquired with a Micromass Quattro Premier triple quadrupole mass spectrometer equipped with a LockSpray electrospray ionization source. A negative ion mode ionisation was used. The multiple reaction monitoring (MRM) mode of detection was used. The mass spectrometer and UPLC system were operated under Micromass MassLynx 4.1 software. Complete LC/MS/MS parameters are presented in Appendix I.
Detection/quantitation limits between 2 ng/ml and 10 ng/ml in plasma were obtained for each compound. Calibration curves for quantification were generated by fitting the ratio of the external standard peak areas as a function of the concentration, excluding the point of origin and using 1/x weighting and linear or quadratic fitting. The ranges up to 2000 ng/ml were fitted for calibration curves. […] The overall precisions 12.0-17.0% were calculated from the standard samples (two injection/concentration), using Snedecor equation S=(Σd^2/2n)^0.5, in which S=precision, d is the difference between duplicates expressed as % of the mean value, and N is the number of standard concentration. The concentrations of each study compound in the samples are shown in the Appendices IV-VI.

[1] = plasma, iv, i.v. 1 mg/kg, mean n=3
[2] = 1 mg/kg i.v., individual animals, 1 mg/kg
[3] = 8 mg/kg p.o., individual animals, 8 mg/kg

Structure (SMILES): CC(C)c1cc(Cl)cc(C(C)C)c1O [4-Cl-propofol, 4-Chloropropofol]
- clearance [1]: 148 mL/min/kg
- Tmax [1]: 15 min
- bioavailability (plasma, oral, 8 mg/kg p.o. vs 1 mg/kg i.v., read-out: F (%) tentative oral bioavailability): 72.4%
- Tmax (plasma, po, p.o. 8 mg/kg, mean n=3): 30 min
- tmax (1 mg/kg i.v., individual animals): 15 min
- AUC [2]: 10.7 µg·min/mL and 5.43 µg·min/mL and 6.01 µg·min/mL
- CL/F [2]: 93.2 mL/min/kg and 184 mL/min/kg and 166 mL/min/kg
- MRT [2]: 31.8 min and 80.8 min and 33.6 min
- cmax [2]: 170 ng/mL and 70 ng/mL and 90 ng/mL
- t1/2 [2]: 16.3 min and 81.8 min and 48.2 min
- tmax (8 mg/kg p.o., individual animals): 30 min
- AUC [3]: 33.2 µg·min/mL and 34.9 µg·min/mL and 60.4 µg·min/mL
- CL/F [3]: 229 mL/min/kg and 133 mL/min/kg
- MRT [3]: 305 min and 760 min and 764 min
- cmax [3]: 0.12 μg/mL (2×) and 0.05 μg/mL
- t1/2 [3]: 205 min and 493 min and 496 min
- ADC 0-6 h (i.v. 1 mg/kg, mean n=3): 6.29 µg·min/mL
- AUC (i.v. 1 mg/kg, mean n=3): 7.39 µg·min/mL
- CL/F (i.v. 1 mg/kg, mean n=3): 148 mL/min/kg
- half life (in words) (i.v. dosing): intermediate
- clearance (in words) (i.v. dosing, compared to rat liver blood flow): very high
- concentration in plasma (iv (1 mg/kg), 15 min, individual animals, listed as CK1-1, 1 mg/kg): 172 ng/mL and 70.0 ng/mL and 94.3 ng/mL
- concentration in plasma (iv (1 mg/kg), 30 min, individual animals, listed as CK1-1, 1 mg/kg): 26.1 ng/mL and 25.4 ng/mL
- concentration in plasma (iv (1 mg/kg), 1 h, individual animals, listed as CK1-1, 1 mg/kg): 15.2 ng/mL and 16.5 ng/mL
- concentration in plasma (iv (1 mg/kg), 2 h, individual animals, listed as CK1-1, 1 mg/kg): 33.7 ng/mL and 11.5 ng/mL
- detection in plasma after oral (p.o.) administration (p.o.): observed in plasma
- ADC 0-6 h (p.o. 8 mg/kg, mean n=3): 18.7 µg·min/mL
- AUC (p.o. 8 mg/kg, mean n=3): 42.8 µg·min/mL
- CL (p.o. 8 mg/kg, mean n=3): 146 mL/min/kg
- Vd (p.o. 8 mg/kg, mean n=3): 79.6 L/kg
- MRT (plasma, iv, 1 mg/kg, i.v. 1 mg/kg, mean n=3, read-out: MRT (converted)): 48.7 min
- Vd (plasma, iv, 1 mg/kg, i.v. 1 mg/kg, mean n=3, read-out: Vd): 11.8 L/kg
- cmax (plasma, iv, 1 mg/kg, i.v. 1 mg/kg, mean n=3, read-out: cmax): 110 ng/mL
- half-life (plasma, iv, 1 mg/kg, i.v. 1 mg/kg): 48.8 min
- concentration at 30 min (plasma, iv, 1 mg/kg, iv (1 mg/kg), 30 min, individual animals): 47.3 ng/mL
- concentration at 1 h (plasma, iv, 1 mg/kg, iv (1 mg/kg), 1 h, individual animals): 13.2 ng/mL
- CL/F (plasma, po, 8 mg/kg, 8 mg/kg p.o., individual animals, read-out: CL/F): 241 mL/min/kg
- Vd/F (plasma, po, 8 mg/kg, p.o. 8 mg/kg, mean n=3): 110 L/kg
- CL/F (plasma, po, 8 mg/kg, p.o. 8 mg/kg, mean n=3, read-out: CL/F): 201 mL/min/kg
- MRT (plasma, po, 8 mg/kg, p.o. 8 mg/kg, mean n=3, read-out: MRT (converted)): 609 min
- cmax (plasma, po, 8 mg/kg, p.o. 8 mg/kg, mean n=3, read-out: cmax): 100 ng/mL
- half-life (plasma, po, 8 mg/kg, p.o. 8 mg/kg): 398 min
- concentration at 4 h (plasma, po, 8 mg/kg, po (8 mg/kg), 4 h, individual animals): 61.8 ng/mL
- concentration at 6 h (plasma, po, 8 mg/kg, po (8 mg/kg), 6 h, individual animals): 33.8 ng/mL
- concentration in plasma (po (8 mg/kg), 30 min, individual animals, listed as CK1-1, 8 mg/kg): 121 ng/mL and 116 ng/mL and 51.0 ng/mL
- concentration in plasma (po (8 mg/kg), 1 h, individual animals, listed as CK1-1, 8 mg/kg): 99.8 ng/mL and 47.3 ng/mL and 57.2 ng/mL
- concentration in plasma (po (8 mg/kg), 2 h, individual animals, listed as CK1-1, 8 mg/kg): 64.3 ng/mL and 25.3 ng/mL and 52.3 ng/mL
- concentration in plasma (po (8 mg/kg), 4 h, individual animals, listed as CK1-1, 8 mg/kg): 36.1 ng/mL and 55.1 ng/mL
- concentration in plasma (po (8 mg/kg), 6 h, individual animals, listed as CK1-1, 8 mg/kg): 32.0 ng/mL and 55.3 ng/mL
